Experimental data taken from patent publication US10808017B2, “Ubiquitin variants and uses therof as 53BP1 inhibitors” (The Governing Council of the University of Toronto, priority 2016, dated 2020).
Entries after “also recorded” stand apart in the source; their conditions may differ.

Key:
[1] = molecular target: T1, RPS24 (Homo sapiens, UniProt P62847); test: Flag IP-MS of i53/i53-DM baits: prey RPS24; format: binding; settings: 293T Flp-In/T-Rex extracts, LC-MS/MS, one column per replicate IP
T1 construct: endogenous in cells; host or cells: HEK293 Flp-In/T-REx
Method: Following immunoprecipitation of Flag-tagged i53 and i-53-DM from HEK293 Flp-In/T-REx cells, peptides were identified using LC-MS/MS. Proteins were digested in solution with trypsin (Sigma, T7575-1KT) and dried to completeness. For LC-MS/MS analysis, peptides were reconstituted in 5% formic acid and loaded onto a 12-15 cm fused silica column with pulled tip packed in-house with 3.5 μm Zorbax C18 (Agilent Technologies, Calif., USA).
i53 and i53-DM precipitates were analyzed using an LTQ (Thermo Scientific) coupled to an Agilent 1100 Series HPLC (Agilent Technologies). Peptides were eluted from the column using a 90 min period cycle with a linear gradient from 0% to 40% ACN in 0.1% formic acid. Tandem MS spectra were acquired in a data-dependent mode for the top 5 (LTQ) most abundant ions using collision-induced dissociation. Acquired spectra were searched against the human Refseq_V53 database using Mascot (Matrix Science).
293T Flp-In/T-Rex cell lines were generated that expressed Flag-tagged i53 or i53-DM under the control of a tetracycline-inducible promoter as previously described. Nine IP-MS experiments were analyzed (3 biological replicate IPs each for control i53- and i53-DM expressing cell lines). The interacting proteins were identified by MASCOT to identify high-confidence interactors for i53. […]

[2] = tested on: gene targeting at the LMNA locus in U2OS cells; test: LMNA mClover gene targeting assay (CRISPR/Cas9); format: cell-based
Method: FIG. 4. Activation of HR by i53. FIG. 4A, Schematic of the DR-GFP assay. FIG. 4B. U2OS DR-GFP cells were transfected with the vectors expressing i53, the DM mutant or an empty vector control (EV) along with an I-Scel expression vector. The percentage of GFP-positive cells was determined 48 h post-transfection for each condition and was normalized to the empty vector condition (mean±s.d., N=4). FIG. 4C, U2OS DR-GFP were first transfected with siRNAs targeting the 53BP1 or BRCA1 mRNAs along with a non-targeting siRNA (CTRL). 24 h post-transfection, cells were transfected with the I-SceI expression vector and the percentage of GFP-positive cells was determined 48 h post-siRNA transfection for each condition. The values were normalized to the empty vector condition and presented as the mean±s.e.m; N=4. FIG. 4D, Schematic of the gene targeting assay. FIG. 4E, Gene targeting efficiency at the LMNA locus in parental or 53BP1Δ U2OS cells following transfection with vectors expressing Flag-tagged i53 or its DM mutant or an empty vector control (EV). The DNA-PK inhibitor NU7441 was also added where indicated. 24 h post-transfection, cells were analysed for mClover fluorescence. Individual experiments are presented with the error bar representing the s.d., (N=3). FIG. 4F, Gene targeting at the LMNA locus in G 1-arrested parental (WT) or 53BP1Δ U2OS cells transfected with vectors expressing Flag-tagged i53 or its DM mutant or an empty vector control (EV). The DNA-PK inhibitor NU7441 was also added in the indicated conditions. 24 h post-transfection, cells were analysed for mClover fluorescence. Individual experiments are present with the error bar representing the s.d., (N=3).
The Lamin A (LMNA) assay to measure the frequency of introduction of the coding sequence for mClover at the 5′ end of LMNA using the CRISPR/Cas9 was performed as previously described4. Parental or 53BP1Δ U2OS cell lines were transfected with the indicated plasmids using Lipofectamine RNAiMAX (Invitrogen). 24 h later, the cells were electroporated with 2.5 μg of sgRNA plasmids and 2.5 μg of donor template using a Nucleofector (Lonza; protocol X-001). Parental or 53BP1Δ U2OS cells stably expressing CtIP-T847E mutant were transfected with an siRNA against KEAP1 and the indicated plasmids and processed as previously described.

[3] = tested on: BFP transgene in 293T cells; test: ssODN-based BFP-to-GFP HR assay; format: cell-based; settings: AAV-DJ transduced 293T cells, Cas9 RNP, 4 d, versus i53-DM
Excerpt: FIG. 11. 53BP1 inhibition by i53 stimulates ssODN-mediated homologous recombination. FIG. 11A, Schematic of the BFP-to-GFP conversion assay. Cells carrying a stably integrated BFP transgene are transfected with Cas9 ribonucleoproteins (RNPs) programmed with a gRNA against the BFP coding sequence along with an ssODN that converts 3 nucleotides of BFP into those that produce a GFP protein upon successful HR-mediated repair. FIG. 11B-C, 293T cells that were first transduced with AAV-DJ1 vectors coding for i53-DM or i53 with the BFP transgene were nucleofected with Cas9 RNPs and optimal (b) and suboptimal (c) ssODN repair donors that convert BFP to GFP. 4 d after nucleofection, GFP fluorescence was monitored by flow cytometry. […] 3 d post-nucleofection, genomic DNA was isolated and the presence of the Pcil restriction fragment length polymorphism (RFLP) was determined by restriction digest on PCR-amplified genomic DNA. […]
The BFP-to-GFP assay was performed essentially as described Richardson CD et al, Nat Biotechnol. […] After 4 days, BFP and GFP fluorescence were measured by flow cytometry on a BD Fortessa, and analyzed with FlowJo v10 software. […]

Substance: i53-DM: 53BP1-binding deficient mutant of i53 (P69L, L70V)
- Total peptides, RPS24 [1]: 4

Substance: i53: UbvG08 with C-terminal di-glycine removed and I44A mutation; genetically encoded inhibitor of 53BP1
- Gene targeting at the LMNA locus in 53BP1Δ cells ([2]; 53BP1Δ U2OS cells): did not result in a further increase in gene targeting
- Cas9-stimulated gene targeting at the LMNA locus in G1 ([2]; G1-arrested U2OS cells expressing CtIP-T847E, KEAP1 siRNA, compared with 53BP1 knockout): nearly as efficient as the 53BP1 knockout
- Gene targeting at the LMNA locus, i53 combined with DNA-PK inhibition ([2]; i53 plus NU7441 (10 μM)): additive increase in gene targeting
- Change of gene targeting at the LMNA locus (in words) ([2]; parental U2OS cells, NU7441 at 10 μM): nearly two-fold; also recorded: approached that of 53BP1-null cells
- Gene targeting efficiency at the LMNA locus (mClover-positive cells) ([2]; parental U2OS cells, empty vector control 4.79% +/−0.5%): 8.58%
- Stimulation of HDR by ssODNs, BFP-to-GFP conversion [3]: 1.3-1.4 fold
